Data from patent US20260124200A1, “METHOD OF TREATING NEURODEGENERATIVE DISEASES” (The Board of Trustees of the University of Illinois, priority 2022, published 2026).

What was measured:
fpn-1.2KO C. elegans [1] = assay: GFP-tagged ferritin (ftn-1) fluorescence in ASI neurons of fpn-1.2KO worms; format: in vivo
From the text: (§1) The ability of hinokitiol and FeM-1269 to confer neuroprotection. Replicated NBIA, was created fpn-1.2KO C. elegans strain using CRISPR/Cas9-mediated knockout and then mated with Pdat::GFP strain to create a fpn-1.2KO strain with GFP-tagged dopaminergic neurons (fpn-1.2KO; Pdat::GFP). The genotype of strains was verified by genotyping PCR and Sanger sequencing. All strains used have been backcrossed to N2 at least three times. To treat C. elegans with small molecules, day 4 adult worms were transferred to NGM containing small molecules. Worms were transferred to newly seeded small molecules containing NGM until the day seven in which they are imaged using a confocal microscope with GFP fluorescence. The scoring is conducted in a blinded study in which the integrity of the dopaminergic neuron is observed to reflect neurodegeneration. […] Hinokitiol derivative FeM-1269 may have potential to increase the therapeutic index of hinokitiol. […] On the other hand, hinokitiol and FeM-1269 treatment to fpn-1.2KO worms caused robust reductions of fluorescence levels (FIG. 3G-H) from the concentration of 0.1 μM and 0.05 μM, respectively, which can be associated with the release of intracellular iron from ASI neurons. […]

fpn-1.2KO C. elegans [2] = assay: Dopaminergic neurodegeneration scoring in fpn-1.2KO; Pdat::GFP worms; format: in vivo
From the text: as §1

human apo-Tf = human apo-Tf (Homo sapiens, UniProt P02787); assay: Iron handoff to transferrin; format: biochemical
Sequence of human apo-Tf (P02787 20-698): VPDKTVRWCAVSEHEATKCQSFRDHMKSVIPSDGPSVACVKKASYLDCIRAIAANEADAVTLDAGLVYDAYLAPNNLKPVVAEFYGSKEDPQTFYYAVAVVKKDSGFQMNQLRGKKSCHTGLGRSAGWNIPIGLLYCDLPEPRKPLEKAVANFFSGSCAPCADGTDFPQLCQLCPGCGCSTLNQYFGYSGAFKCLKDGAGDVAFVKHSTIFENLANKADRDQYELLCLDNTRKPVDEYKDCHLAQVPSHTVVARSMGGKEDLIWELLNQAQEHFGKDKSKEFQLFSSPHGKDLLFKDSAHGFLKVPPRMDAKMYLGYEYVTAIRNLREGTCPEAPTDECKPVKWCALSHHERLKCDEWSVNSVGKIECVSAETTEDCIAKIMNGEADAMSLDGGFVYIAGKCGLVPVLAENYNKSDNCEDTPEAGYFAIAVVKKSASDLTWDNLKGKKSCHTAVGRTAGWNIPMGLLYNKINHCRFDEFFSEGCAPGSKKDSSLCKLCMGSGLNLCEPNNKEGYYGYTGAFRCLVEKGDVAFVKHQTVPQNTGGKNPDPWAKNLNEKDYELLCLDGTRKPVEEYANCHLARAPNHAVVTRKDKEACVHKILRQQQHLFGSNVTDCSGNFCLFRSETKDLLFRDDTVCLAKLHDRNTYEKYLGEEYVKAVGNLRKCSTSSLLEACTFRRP
Protocol: For kinetic experiments, 4 μM human apo-Tf was incubated with 64 μM Fe(Hino)3 complex. The reactions were stopped at several time points using sample buffer. Samples were run using the same conditions as above. After running, the gels were stained with RAPIDStain (G-biosciences 786-31), according to the manufacturer's instructions. The formation of different Fe-Tf species was quantified by measuring the band densities using ImageLab 4.1 (Bio-Rad) and expressed as a function of molar fractions.

FPN1.2KO C. elegans = assay: ROS (DCF) in lysate of treated FPN1.2KO C. elegans; format: in vivo; conditions: treated day four, collected day 5, lysate with DCF
[3] = EPR of Fe(II) oxidation on compound binding
flatiron mice = assay: ICP-MS brain iron level in flatiron mice; format: in vivo
Protocol: In parallel to C. elegans, flatiron mice were used, a leading animal model of FPN1 deficiency due to H32R mutation of FPN1 (34, 35). These mice were subjected to ICP-MS and behavioral studies in which blood samples and tissues were collected and submitted for analysis. In addition, behavior was assessed by an elevated plus maze, exploratory mazes, and daily monitoring. […] To determine dose-dependency these mice were subjected to a singular IP injection to assess acute administration and then treated chronically via IP injections of 10 mg/kg for a week.

[4] = LC-MS in vitro dopamine oxidation assay; format: physicochemical; conditions: 100 μM dopamine
Protocol: To monitor dopamine oxidation, an in vitro assay using an LC-MS was developed by monitoring dopamine concentrations via mass spectrometry hits. Samples of 100 μM dopamine were prepared and then treated with either control, hino, or FeM-1269. […] In addition, this was monitored via LC-MS to see the concentration of DAC generated in this same process.

[5] = Cyclic voltammetry of hinokitiol-iron complexes; format: physicochemical; conditions: 100 mV/s, 0.1 M Tris, 1:1 MeOH:H2O, pH=7.2, 100 μM Fe(NO3)3
Protocol: These were obtained with a 100 mV/s scan rate with a Hg electrode, Ag/AgCl reference, and graphite auxiliary using a 0.1 M Tris buffer in 1:1 MeOH:H2O at pH=7.2 and 100 μM Fe(NO3)3.

| iron handoff to transferrin (human apo-Tf) | ferroxidase-mimicking activity (EPR) ([3]; EPR results) | EPR signal g′ ([3]; Fe(II) plus compound 3:1, 1:1 MeOH:H2O, 77K) | dopamine oxidation (dopamine remaining) [4] | SMILES | ferritin-GFP fluorescence level in ASI neurons (fpn-1.2KO C. elegans [1]; all administered concentrations) | neuroprotective effect (dopaminergic neurodegeneration score) (fpn-1.2KO C. elegans [2]; all concentrations administered) | concentration from which fluorescence levels are robustly reduced (fpn-1.2KO C. elegans [1]; ASI neurons, GFP-tagged ferritin) | ROS level in vivo (FPN1.2KO C. elegans) | blood-brain barrier penetration (flatiron mice; inferred from brain iron decrease) | brain iron level after acute administration (flatiron mice; singular IP injection) | concentration showing neuroprotective efficacy (fpn-1.2KO C. elegans [2]; worms treated day 4 to day seven) | redox potentials of Fe:Hino [5] |
| --- | --- | --- | --- | --- | --- | --- | --- | --- | --- | --- | --- | --- |
|  |  |  |  | Cc1c(O)c(=O)ccn1C [DFP, deferiprone] | failed to reduce the fluorescence level | did not confer neuroprotective effects |  |  |  |  |  |  |
| can handoff iron to transferrin | promoting Fe(II) oxidation to Fe(III) | 4.3 | mitigating dopamine oxidation | CC(C)c1cccc(=O)c(O)c1 [hinokitiol] |  |  | ≥ 0.1 µM | restore wild type levels of ROS | capacity to penetrate blood-brain barrier | dose-dependent decrease of brain iron level | 0.05 to 0.1 µM | decreased with increasing hinokitiol concentrations |
